According to paper PMC2075511, “Molecular evolution of type VI intermediate filament proteins” (BMC Evolutionary Biology, 2007):

Biological target: T1, HR domain of chicken transitin (HR) (Gallus gallus, UniProt Q90831)
T1 construct: entire C-terminal heptad repeat (HR) domain, more than 50 LQVEHGD repeats; T7- or His-tag fusion protein, expressed in bacteria
Test: malachite green phosphate release
Assay type: biochemical
Details: 10 mM MgCl2, pH 7.5, 25°C

T1 sequence (Q90831 323-1840 limits assumed): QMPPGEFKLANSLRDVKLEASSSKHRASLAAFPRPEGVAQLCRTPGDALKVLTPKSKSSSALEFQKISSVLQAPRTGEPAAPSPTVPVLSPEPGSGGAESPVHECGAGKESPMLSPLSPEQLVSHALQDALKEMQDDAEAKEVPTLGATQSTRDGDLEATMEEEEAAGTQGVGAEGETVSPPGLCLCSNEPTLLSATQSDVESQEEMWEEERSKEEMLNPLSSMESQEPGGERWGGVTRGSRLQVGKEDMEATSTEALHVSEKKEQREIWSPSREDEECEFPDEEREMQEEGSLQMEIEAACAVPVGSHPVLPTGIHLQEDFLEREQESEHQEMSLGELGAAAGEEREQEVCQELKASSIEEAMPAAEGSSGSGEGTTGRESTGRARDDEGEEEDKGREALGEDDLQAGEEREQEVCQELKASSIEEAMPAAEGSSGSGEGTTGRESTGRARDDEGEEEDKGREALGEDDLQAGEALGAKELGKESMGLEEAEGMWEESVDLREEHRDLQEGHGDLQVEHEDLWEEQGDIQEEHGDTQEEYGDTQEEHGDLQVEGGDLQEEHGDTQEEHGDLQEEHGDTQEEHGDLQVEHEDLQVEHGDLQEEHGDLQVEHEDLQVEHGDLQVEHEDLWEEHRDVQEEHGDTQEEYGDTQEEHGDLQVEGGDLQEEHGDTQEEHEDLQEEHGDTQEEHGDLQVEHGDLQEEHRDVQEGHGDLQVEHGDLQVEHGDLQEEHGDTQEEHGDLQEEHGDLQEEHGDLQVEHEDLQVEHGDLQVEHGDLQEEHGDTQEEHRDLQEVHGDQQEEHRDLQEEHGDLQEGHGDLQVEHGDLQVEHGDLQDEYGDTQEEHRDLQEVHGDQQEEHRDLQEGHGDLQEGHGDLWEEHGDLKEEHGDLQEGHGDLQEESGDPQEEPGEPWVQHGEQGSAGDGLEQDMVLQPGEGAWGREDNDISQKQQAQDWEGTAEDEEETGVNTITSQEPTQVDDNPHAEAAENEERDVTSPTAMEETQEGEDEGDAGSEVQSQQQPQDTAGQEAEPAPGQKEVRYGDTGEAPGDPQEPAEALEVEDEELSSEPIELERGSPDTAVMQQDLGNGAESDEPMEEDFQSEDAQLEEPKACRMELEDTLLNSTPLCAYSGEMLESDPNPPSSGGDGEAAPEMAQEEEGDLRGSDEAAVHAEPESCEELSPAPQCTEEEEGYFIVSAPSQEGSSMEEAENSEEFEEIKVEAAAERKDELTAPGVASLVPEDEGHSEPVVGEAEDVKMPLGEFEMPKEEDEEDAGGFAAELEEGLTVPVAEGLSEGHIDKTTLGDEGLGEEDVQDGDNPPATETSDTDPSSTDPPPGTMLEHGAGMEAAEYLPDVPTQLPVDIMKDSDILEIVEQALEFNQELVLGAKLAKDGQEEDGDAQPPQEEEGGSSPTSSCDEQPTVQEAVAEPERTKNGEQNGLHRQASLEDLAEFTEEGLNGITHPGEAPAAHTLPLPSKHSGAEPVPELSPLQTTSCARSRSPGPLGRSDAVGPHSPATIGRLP

Compound | malachite green phosphate release (1 mM ATP) | malachite green phosphate release (1 mM GTP)
Nc1ncnc2c1ncn2[C@@H]1O[C@H](COP(=O)(O)OP(=O)(O)OP(=O)(O)O)[C@@H](O)[C@H]1O [ATP] | The HR domain of transitin has ATPase (Fig. 4a) as well as GTPase (Fig. 4b) activity | 
Nc1nc2c(ncn2[C@@H]2O[C@H](COP(=O)(O)OP(=O)(O)OP(=O)(O)O)[C@@H](O)[C@H]2O)c(=O)[nH]1 [GTP] |  | The HR domain of transitin has ATPase (Fig. 4a) as well as GTPase (Fig. 4b) activity
